Reference: patent US10882838B2, “Cannabinergic compounds and uses thereof” (Northeastern University, priority 2012, dated 2021)
pKi: −log10 of the molar value. Like-named read-outs stand apart in the source and are kept apart here.

What was measured:
hCB2 receptor = hCB2 receptor (Homo sapiens (Human), UniProt P34972); test: hCB2 competition-equilibrium binding with [3H]CP-55,940, membranes of HEK293 cells expressing hCB2
Procedure: (§1) HEK293 cells expressing hCB1 or hCB2 or mCB2 receptor are used for membrane preparations according to Abadji et al. The resulting pellet is resuspended in 10 mM Tris-chloride, pH 7.4, with 5 mM MgCl2 and 2 mM EDTA (TME), rapidly frozen in liquid nitrogen and stored at −80° C. for no longer than two months. Protein content is assayed by using the Bio-Rad protein assay according to the manufacturer's protocol.
(§2) All the cannabinoids discussed in this invention are tested for their ability to bind to CB1 and CB2 receptors using membranes from rat brain or HEK293 cells expressing either mCB2 or hCB2, respectively via competition-equilibrium binding using [^3H]CP-55,940. Results are analyzed using nonlinear regression to determine ligand IC50 (Prism by GraphPad Software, Inc.), and Ki values are calculated from the IC50. IC50 and Ki values are determined from at least three independent experiments.

CB1 receptor = CB1 receptor (Rattus norvegicus (Rat), UniProt P20272); test: rCB1 competition-equilibrium binding with [3H]CP-55,940, rat brain membranes
Procedure: Frozen rat brains (CB1 source) are obtained from Pel-Freeze Biologicals (Rogers, Ak.) and stored at −80° C. until use. Membranes are prepared according to the method described by Dodd et al. and used in our laboratory as reported.
as §2

mCB2 receptor = mCB2 receptor (Mus musculus (Mouse), UniProt P47936); test: mCB2 competition-equilibrium binding with [3H]CP-55,940, membranes of HEK293 cells expressing mCB2
Procedure: as §1, §2

[1] = HEK293 cells expressing hCB2, [3H]CP-55,940, read-out: hCB2 Ki
[2] = rat brain membranes, [3H]CP-55,940, read-out: rCB1 Ki
[3] = HEK293 cells expressing mCB2, [3H]CP-55,940, read-out: mCB2 Ki

Row | SMILES | pKi (hCB2 receptor) | pKi (CB1 receptor) | pKi (mCB2 receptor) | pKi (hCB2 receptor; [1]) | pKi (CB1 receptor; [2]) | pKi (mCB2 receptor; [3])
1 | CC1=CC[C@H]2[C@@H](C1)c1c(O)cc(C(C)(C)C(=O)O)cc1OC2(C)C [Compound 1.1, 2-((6aS,10aR)-6a,7,10,10a-tetrahydro-1-hydroxy-6,6,9-trimethyl-6H-benzo[c]chromen-3-yl)-2-methylpropanoic Acid] | < 5.00 | < 5.00 | < 5.00 | – | – | –
2 | CCCCOC(=O)C(C)(C)c1cc(O)c2c(c1)OC(C)(C)[C@H]1CC=C(C)C[C@@H]21 [Compound 1.4, Butyl-2-((6aS, 10aR)-6a, 7, 10, 10a-tetrahydro-1-hydroxy-6,6,9-trimethyl-6H-benzo[c]chromen-3-yl)-2-methylpropanoate] | – | – | – | 9.15 | 9.22 | 9.22
3 | CC1=CC[C@H]2[C@@H](C1)c1c(O)cc(C(C)(C)C(=O)OCCCCCBr)cc1OC2(C)C [Compound 1.5, 5-bromopentyl-2-((6aS,10aR)-6a,7,10,10a-tetrahydro-1-hydroxy-6,6,9-trimethyl-6H-benzo[c]chromen-3-yl)-2-methylpropanoate] | – | – | – | 9.22 | 8.92 | 9.30
4 | CC1=CC[C@@H]2[C@@H](C1)c1c(O)cc(C(C)(C)C(=O)OCCCBr)cc1OC2(C)C [Compound 1.7, 3-bromopropyl-2-((6aR, 10aR)-6a, 7, 10, 10a-tetrahydro-1-hydroxy-6,6,9-trimethyl-6H-benzo[c]chromen-3-yl)-2-methylpropanoate] | – | – | – | 9.22 | 9.10 | 8.96
5 | CC1=CC[C@@H]2[C@@H](C1)c1c(O)cc(C(C)(C)C(=O)OCCCC#N)cc1OC2(C)C [Compound 1.8, 3-cyanopropyl-2-((6aR,10aR)-6a,7,10,10a-tetrahydro-1-hydroxy-6,6,9-trimethyl-6H-benzo[c]chromen-3-yl)-2-methylpropanoate] | – | – | – | 8.85 | 9.30 | 9.15
6 | CC1=CC[C@@H]2[C@@H](C1)c1c(O)cc(C(C)(C)C(=O)OCCCN=[N+]=[N-])cc1OC2(C)C [Compound 1.9, 3-azidopropyl-2-((6aR,10aR)-6a,7,10,10a-tetrahydro-1-hydroxy-6,6,9-trimethyl-6H-benzo[c]chromen-3-yl)-2-methylpropanoate] | – | – | – | 9.10 | 9.00 | 9.15
7 | CC1=CC[C@@H]2[C@@H](C1)c1c(O)cc(C(C)C(=O)O)cc1OC2(C)C (stereo partly drawn) [Compound 1.11, 2-((6aR,10aR)-1-hydroxy-6,6,9-trimethyl-6a,7,10,10a-tetrahydro-6H-benzo[c]chromen-3-yl)propanoic acid] | – | – | – | < 5.00 | < 5.00 | < 5.00
8 | CC1=CC[C@@H]2[C@@H](C1)c1c(O)cc([C@@H](C)C(=O)O)cc1OC2(C)C [Compound 1.13, (R)-2-((6aR,10aR)-1-hydroxy-6,6,9-trimethyl-6a,7,10,10a-tetrahydro-6H-benzo[c]chromen-3-yl)propanoic Acid] | – | – | – | < 5.00 | < 5.00 | < 5.00
9 | CC1=CC[C@@H]2[C@@H](C1)c1c(O)cc([C@H](C)C(=O)O)cc1OC2(C)C [Compound 1.15, (S)-2-((6aR,10aR)-1-hydroxy-6,6,9-trimethyl-6a,7,10,10a-tetrahydro-6H-benzo[c]chromen-3-yl)propanoic Acid] | – | – | – | < 5.00 | < 5.00 | < 5.00
10 | CC1=CC[C@@H]2[C@@H](C1)c1c(O)cc(C3(C(=O)O)CCC3)cc1OC2(C)C [Compound 1.17, 1-((6aR,10aR)-1-hydroxy-6,6,9-trimethyl-6a,7,10,10a-tetrahydro-6H-benzo[c]chromen-3-yl)cyclobutanecarboxylic Acid] | – | – | – | < 5.00 | < 5.00 | < 5.00
11 | CC1=CC[C@@H]2[C@@H](C1)c1c(O)cc(C3(C(=O)OCCCCN=[N+]=[N-])CCC3)cc1OC2(C)C [Compound 1.21, 4-azidobutyl 1-((6aR,10aR)-1-hydroxy-6,6,9-trimethyl-6a,7,10,10a-tetrahydro-6H-benzo[c]chromen-3-yl)cyclo Butanecarboxylate] | – | – | – | 8.57 | 9.05 | 8.72
12 | CCCCCCC(O)(CC(=O)O)c1cc(O)c2c(c1)OC(C)(C)[C@@H]1CC=C(C)C[C@@H]21 (stereo partly drawn) [Compound 1.22, 3-hydroxy-3-((6aR,10aR)-1-hydroxy-6,6,9-trimethyl-6a,7,10,10a-tetrahydro-6H-benzo[c]chromen-3-yl)nonanoic Acid] | – | – | – | 6.00 | 6.22 | 6.00
13 | CCCCCCC1(c2cc(O)c3c(c2)OC(C)(C)[C@@H]2CC=C(C)C[C@@H]32)CC(=O)O1 (stereo partly drawn) [Compound 1.23, 4-hexyl-4-((6aR,10aR)-1-hydroxy-6,6,9-trimethyl-6a,7,10,10a-tetrahydro-6H-benzo[c]chromen-3-yl)oxetan-2-one] | 7.26 | 7.80 | 7.39 | – | – | –
14 | CC1=CC[C@@H]2[C@@H](C1)c1c(O)cc(CC(=O)O)cc1OC2(C)C [Compound 1.26, 2-((6aR,10aR)-6a,7,10,10a-tetrahydro-1-hydroxy-6,6,9-trimethyl-6H-benzo[c]chromen-3-yl)acetic Acid] | – | – | – | < 5.00 | < 5.00 | < 5.00
15 | CCCSC(=O)C(C)(C)c1cc(O)c2c(c1)OC(C)(C)[C@@H]1CC=C(C)C[C@@H]21 [Compound 1.30, S-propyl-2-((6aR,10aR)-6a,7,10,10a-tetrahydro-1-hydroxy-6,6,9-trimethyl-6H-benzo[c]chromen-3-yl)-2-methylpropanethioate] | – | – | – | 9.15 | 9.30 | –
16 | CCCCCNC(=O)C(C)(C)c1cc(O)c2c(c1)OC(C)(C)[C@@H]1CC=C(C)C[C@@H]21 [Compound 1.31, 2-((6aR,10aR)-6a,7,10,10a-tetrahydro-1-hydroxy-6,6,9-trimethyl-6H-benzo[c]chromen-3-yl)-2-methyl-N-pentylpropanamide] | – | – | – | 8.55 | 8.20 | 8.04
17 | CC1=CC[C@@H]2[C@@H](C1)c1c(O)cc(C(C)(C)CO)cc1OC2(C)C [Compound 1.32, (6aR,10 aR)-3-(1-hydroxy-2-methylpropan-2-yl)-6,6,9-trimethyl-6a,7,10,10a-tetrahydro-6H-benzo[c]chromen-1-ol] | – | – | – | – | 6.35 | –
18 | CCCCC(=O)OCC(C)(C)c1cc(O)c2c(c1)OC(C)(C)[C@@H]1CC=C(C)C[C@@H]21 [Compound 1.33, 2-((6aR, 10aR)-6a,7,10,10a-tetrahydro-1-hydroxy-6,6,9-trimethyl-6H-benzo[c]chromen-3-yl)-2-methyl propylpentanoate] | – | – | – | 9.00 | 9.30 | –
19 | CCCCCCC(C)(C)c1cc(O)c2c(c1)OC(C)(C)[C@@H]1CCOC(=O)C[C@@H]21 [Compound 3.11, (5 aR,11bR)-11-hydroxy-6,6-dimethyl-9-(2-methyloctan-2-yl)-4,5,5a,6-tetrahydro-1H-oxepino[4,5-c]chromen-2(11bH)-one] | – | – | – | – | 7.00 | 6.10
20 | CCOC(=O)C(C)(C)c1cc(O)c(-c2cccc(C#N)c2)c(O)c1 [Compound 4.2, Ethyl 2-(3′-cyano-2,6-dihydroxybiphenyl-4-yl)-2-methylpropanoate] | – | – | – | 7.02 | 5.44 | –
21 | CCOC(=O)C(C)(C)c1cc(O)c(-c2cc(Cl)cc(Cl)c2)c(OC)c1 [Compound 4.7, ethyl 2-(3′,5′-dichloro-2-hydroxy-6-methoxybiphenyl-4-yl)-2-methylpropanoate] | – | – | – | 6.15 | 6.00 | –
22 | CCOC(=O)C(C)(C)c1cc(O)c(-c2cc(Cl)cc(Cl)c2)c(O)c1 [Compound 4.8, Ethyl 2-(3′,5′-dichloro-2,6-dihydroxybiphenyl-4-yl)-2-methylpropanoate] | – | – | – | 7.68 | – | –
